In PubChem BioAssay (NCI):
“And” between values parts separate entries of the source, which are not always exact repeats. Identical values can stand only once.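 Protocol summary: plate cells (96-well), add compound at 5 concentrations, incubate 48 h, interpolate endpoints linearly. GI50: concentration for 50% inhibition of growth. TGI denotes the concentration required for complete inhibition of growth.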

Experiments:
Assay in all cases: NCI tumour cell line growth inhibition, 48 h
A498 renal = tested on: A498 renal
A549 NSCLC = tested on: A549 NSCLC
EKVX NSCLC = tested on: EKVX NSCLC
HT29 colon = tested on: HT29 colon
KM12 colon = tested on: KM12 colon
NCI-H460 lung = tested on: NCI-H460 lung
NCI-H522 lung = tested on: NCI-H522 lung
SK-OV-3 ovarian = tested on: SK-OV-3 ovarian
RXF 393 renal = tested on: RXF 393 renal
SR leukemia = tested on: SR leukemia

With `CN(C)CCCNC(=O)CNC(=O)c1cc(NC(=O)c2cc(NC(=O)c3cc(NC(=O)CCNC(=O)c4cc(NC(=O)c5cc(NC(=O)c6nccn6C)cn5C)cn4C)cn3C)cn2C)cn1C` the TGI (A498 renal) was over 100 µM, the TGI (A549 NSCLC) was over 100 µM and the TGI (EKVX NSCLC) was over 100 µM. For the same compound, the TGI (HT29 colon) was over 100 µM, the TGI (KM12 colon) was over 100 µM and the TGI (NCI-H460 lung) was over 100 µM. For the same compound, the TGI (NCI-H522 lung) was over 100 µM and the TGI (SK-OV-3 ovarian) was over 100 µM.
In the case of `O=C1NC(N/N=C/C(O)C(O)C(O)C(O)CO)=N/C1=C\c1cccs1` (stereo not given), the TGI (A498 renal) was over 100 µM, the TGI (A549 NSCLC) was over 100 µM and the TGI (EKVX NSCLC) was over 100 µM. It also gave a TGI (HT29 colon) of over 100 µM, a TGI (KM12 colon) of over 100 µM and a TGI (NCI-H460 lung) of over 100 µM. For the same compound, the TGI (NCI-H522 lung) was over 100 µM, the TGI (RXF 393 renal) was over 100 µM and the TGI (SK-OV-3 ovarian) was over 100 µM.
In the case of `CC1CSc2nc3[nH]c(=S)[nH]c3c(=O)n2C1` (stereo not given), the TGI (A498 renal) was over 100 µM, the TGI (A549 NSCLC) was over 100 µM and the TGI (EKVX NSCLC) was over 100 µM. It also gave a TGI (KM12 colon) of over 100 µM, a TGI (NCI-H460 lung) of over 100 µM and a TGI (RXF 393 renal) of over 100 µM. It also gave a TGI (SK-OV-3 ovarian) of over 100 µM.
Work on `CC(=O)/C=C/c1c[nH]c(=O)[nH]c1=O` yielded a TGI (A498 renal) of 566 µM, a TGI (A549 NSCLC) of 1090 µM and a TGI (EKVX NSCLC) of 570 µM. It also gave a TGI (HT29 colon) of 847 µM, a TGI (KM12 colon) of 439 µM and a TGI (NCI-H460 lung) of 613 µM. For the same compound, the TGI (NCI-H522 lung) was 295 µM, the TGI (RXF 393 renal) was 416 µM and the TGI (SK-OV-3 ovarian) was 703 µM.
With `Cc1ccc(S(=O)(=O)OCC23CCC(C4CC42)C2CC23)cc1` (stereo not given) the TGI (A498 renal) was over 100 µM, the TGI (A549 NSCLC) was over 100 µM and the TGI (HT29 colon) was over 100 µM. It also gave a TGI (NCI-H460 lung) of over 100 µM, a TGI (SK-OV-3 ovarian) of over 100 µM and a TGI (SR leukemia) of over 100 µM.
`CCOC(=O)/C=C/[C@H](O[Si](c1ccccc1)(c1ccccc1)c1ccccc1)C(C)(C)C` gave a TGI (A498 renal) of over 31.6 µM, a TGI (A549 NSCLC) of over 31.6 µM and a TGI (EKVX NSCLC) of over 31.6 µM. The TGI (HT29 colon) was over 31.6 µM, the TGI (KM12 colon) was over 31.6 µM and the TGI (NCI-H522 lung) was over 31.6 µM. The TGI (RXF 393 renal) was over 31.6 µM and the TGI (SK-OV-3 ovarian) was over 31.6 µM.
With `FC(F)(F)C1(C(F)(F)F)OC(Cl)(Cl)C(Cl)(Cl)O1` the TGI (A498 renal) was over 10 µM, the TGI (A549 NSCLC) was over 10 µM and the TGI (EKVX NSCLC) was over 10 µM. It also gave a TGI (HT29 colon) of over 10 µM, a TGI (KM12 colon) of over 10 µM and a TGI (NCI-H460 lung) of over 10 µM. It also gave a TGI (NCI-H522 lung) of over 10 µM, a TGI (RXF 393 renal) of over 10 µM and a TGI (SK-OV-3 ovarian) of over 10 µM.
`CCOP(=O)(OCC)C(Cc1ccccc1)N=C(c1ccccc1)c1ccccc1` (stereo not given) was tested, and the TGI (A549 NSCLC) was 24.2 µM, the TGI (EKVX NSCLC) was 34.3 µM and the TGI (HT29 colon) was 27.6 µM. It also gave a TGI (KM12 colon) of 32.2 µM, a TGI (NCI-H460 lung) of 31.9 µM and a TGI (NCI-H522 lung) of 29.6 µM. For the same compound, the TGI (SK-OV-3 ovarian) was 28.5 µM and the TGI (SR leukemia) was over 100 µM.
`CSc1nc(-c2cc3c(c(SC)n2)CCC3)cc2c1CCC2` showed a TGI (A498 renal) of over 100 µM, a TGI (A549 NSCLC) of over 100 µM and a TGI (EKVX NSCLC) of over 100 µM. It also gave a TGI (HT29 colon) of over 100 µM, a TGI (KM12 colon) of over 100 µM and a TGI (NCI-H460 lung) of over 100 µM. It also gave a TGI (NCI-H522 lung) of over 100 µM, a TGI (RXF 393 renal) of over 100 µM and a TGI (SK-OV-3 ovarian) of over 100 µM.
`CCCCN(CCCC)c1ccc(N=Nc2ccc(S(=O)(=O)O)cc2)cc1` gave a TGI (A498 renal) of over 100 µM, a TGI (A549 NSCLC) of over 100 µM and a TGI (EKVX NSCLC) of over 100 µM. The TGI (HT29 colon) was 85.1 µM, the TGI (KM12 colon) was 32.8 µM and the TGI (NCI-H460 lung) was over 100 µM. It also gave a TGI (RXF 393 renal) of 29.8 µM and a TGI (SK-OV-3 ovarian) of over 100 µM.
Work on `COc1cc(/C=C/C(=O)O)ccc1O` yielded a TGI (A549 NSCLC) of over 100 µM, a TGI (EKVX NSCLC) of over 100 µM and a TGI (HT29 colon) of over 100 µM. It also gave a TGI (KM12 colon) of over 100 µM, a TGI (NCI-H460 lung) of over 100 µM and a TGI (NCI-H522 lung) of over 100 µM. For the same compound, the TGI (SR leukemia) was over 100 µM.
With `O=[N+]([O-])c1cccc2nc3ccccc3c(NCCNCCO)c12` the TGI (A498 renal) was 0.0264 µM, the TGI (A549 NSCLC) was 0.145 µM and 0.144 µM and the GI50 (EKVX NSCLC) was 0.0306 µM. For the same compound, the TGI (EKVX NSCLC) was 0.286 µM and 0.181 µM, the TGI (KM12 colon) was 0.0277 µM and 0.0202 µM and the TGI (NCI-H460 lung) was 0.108 µM. For the same compound, the TGI (NCI-H522 lung) was 0.00272 µM, the TGI (RXF 393 renal) was 0.0205 µM and the TGI (SK-OV-3 ovarian) was 0.293 µM and 0.377 µM.
`CC(=O)O/C(=C(/C#N)C(=O)O)C1C(C(=O)O)C(c2ccccc2[N+](=O)[O-])C=C(c2ccco2)N1c1ccncc1` (stereo not given) was tested, and the TGI (A498 renal) was 25 µM, the TGI (A549 NSCLC) was 26.7 µM and the TGI (EKVX NSCLC) was 22.1 µM. For the same compound, the TGI (HT29 colon) was 3.16 µM, the TGI (KM12 colon) was 3.14 µM and the TGI (NCI-H460 lung) was 19.3 µM. It also gave a TGI (NCI-H522 lung) of 11.3 µM and a TGI (SK-OV-3 ovarian) of 23.9 µM.
Compound `CC1(C)OC[C@@]2([C@@H]3CC[C@@H](C3)C2(C)C)N1O` has a TGI (A498 renal) of over 100 µM, a TGI (A549 NSCLC) of over 100 µM and a TGI (EKVX NSCLC) of over 100 µM. It also gave a TGI (HT29 colon) of over 100 µM, a TGI (KM12 colon) of over 100 µM and a TGI (NCI-H460 lung) of over 100 µM. For the same compound, the TGI (NCI-H522 lung) was over 100 µM, the TGI (RXF 393 renal) was over 100 µM and the TGI (SK-OV-3 ovarian) was over 100 µM.
`Cc1cc2c(cc1Cl)Sc1nnc(C)n1S2(=O)=O` gave a TGI (A498 renal) of 40.2 µM, a TGI (A549 NSCLC) of 97.2 µM and a TGI (EKVX NSCLC) of 34.3 µM. For the same compound, the TGI (HT29 colon) was 45.8 µM, the TGI (KM12 colon) was 30.9 µM and the TGI (NCI-H460 lung) was 78.5 µM. It also gave a TGI (NCI-H522 lung) of 23.4 µM, a TGI (RXF 393 renal) of 47.4 µM and a TGI (SK-OV-3 ovarian) of 75.2 µM.
Compound `COc1ncc(C#CC(=O)c2ccccc2OC)c(OC)n1` has a TGI (A498 renal) of 35.2 µM, a TGI (A549 NSCLC) of 19 µM and a TGI (EKVX NSCLC) of 10.3 µM. The TGI (HT29 colon) was 3.84 µM, the TGI (KM12 colon) was 18.4 µM and the TGI (NCI-H460 lung) was 15.7 µM. The TGI (NCI-H522 lung) was 2.21 µM, the TGI (RXF 393 renal) was 3.32 µM and the TGI (SK-OV-3 ovarian) was over 60.4 µM.
In the case of `COc1ccc(S(=O)Cc2cc(OC)ccc2OC)cc1` (stereo not given), the TGI (A498 renal) was over 100 µM, the TGI (A549 NSCLC) was over 100 µM and the TGI (EKVX NSCLC) was over 100 µM. The TGI (HT29 colon) was over 100 µM, the TGI (KM12 colon) was over 100 µM and the TGI (NCI-H460 lung) was over 100 µM. The TGI (NCI-H522 lung) was over 100 µM, the TGI (RXF 393 renal) was over 100 µM and the TGI (SK-OV-3 ovarian) was over 100 µM.
`CCO[C@H]1C[C@@H](c2ccccc2)[C@]2(C)C[C@H](C(=O)OC)ON2O1` was tested, and the TGI (A498 renal) was over 100 µM, the TGI (A549 NSCLC) was over 100 µM and the TGI (EKVX NSCLC) was over 100 µM. For the same compound, the TGI (HT29 colon) was over 100 µM, the TGI (KM12 colon) was over 100 µM and the TGI (NCI-H522 lung) was over 100 µM. It also gave a TGI (RXF 393 renal) of over 100 µM.
In the case of `O=S(=O)(NC(c1ccccc1)(c1cc2ccccc2[nH]1)c1cc2ccccc2n1S(=O)(=O)c1ccccc1)c1ccccc1` (stereo not given), the TGI (A498 renal) was over 100 µM, the TGI (A549 NSCLC) was over 100 µM and the TGI (EKVX NSCLC) was over 100 µM. For the same compound, the TGI (HT29 colon) was over 100 µM, the TGI (KM12 colon) was over 100 µM and the TGI (NCI-H460 lung) was over 100 µM. For the same compound, the TGI (SK-OV-3 ovarian) was 92.4 µM and the TGI (SR leukemia) was over 100 µM.
`CC1(C)OC2CN(C(=O)OCc3ccccc3)C(CO)C2O1` (stereo not given) was tested, and the TGI (A498 renal) was over 100 µM, the TGI (A549 NSCLC) was over 100 µM and the TGI (EKVX NSCLC) was over 100 µM. It also gave a TGI (HT29 colon) of over 100 µM, a TGI (KM12 colon) of over 100 µM and a TGI (NCI-H460 lung) of over 100 µM. For the same compound, the TGI (NCI-H522 lung) was over 100 µM, the TGI (RXF 393 renal) was over 100 µM and the TGI (SK-OV-3 ovarian) was over 100 µM.
